pIC50: −log10 of the molar value.
Biological target: ROCK2 (human) (UniProt O75116)
Experiment: Inhibition of ROCK2 Kinase Activity

Chain of ROCK2 (human) (O75116 whole entry, looked up): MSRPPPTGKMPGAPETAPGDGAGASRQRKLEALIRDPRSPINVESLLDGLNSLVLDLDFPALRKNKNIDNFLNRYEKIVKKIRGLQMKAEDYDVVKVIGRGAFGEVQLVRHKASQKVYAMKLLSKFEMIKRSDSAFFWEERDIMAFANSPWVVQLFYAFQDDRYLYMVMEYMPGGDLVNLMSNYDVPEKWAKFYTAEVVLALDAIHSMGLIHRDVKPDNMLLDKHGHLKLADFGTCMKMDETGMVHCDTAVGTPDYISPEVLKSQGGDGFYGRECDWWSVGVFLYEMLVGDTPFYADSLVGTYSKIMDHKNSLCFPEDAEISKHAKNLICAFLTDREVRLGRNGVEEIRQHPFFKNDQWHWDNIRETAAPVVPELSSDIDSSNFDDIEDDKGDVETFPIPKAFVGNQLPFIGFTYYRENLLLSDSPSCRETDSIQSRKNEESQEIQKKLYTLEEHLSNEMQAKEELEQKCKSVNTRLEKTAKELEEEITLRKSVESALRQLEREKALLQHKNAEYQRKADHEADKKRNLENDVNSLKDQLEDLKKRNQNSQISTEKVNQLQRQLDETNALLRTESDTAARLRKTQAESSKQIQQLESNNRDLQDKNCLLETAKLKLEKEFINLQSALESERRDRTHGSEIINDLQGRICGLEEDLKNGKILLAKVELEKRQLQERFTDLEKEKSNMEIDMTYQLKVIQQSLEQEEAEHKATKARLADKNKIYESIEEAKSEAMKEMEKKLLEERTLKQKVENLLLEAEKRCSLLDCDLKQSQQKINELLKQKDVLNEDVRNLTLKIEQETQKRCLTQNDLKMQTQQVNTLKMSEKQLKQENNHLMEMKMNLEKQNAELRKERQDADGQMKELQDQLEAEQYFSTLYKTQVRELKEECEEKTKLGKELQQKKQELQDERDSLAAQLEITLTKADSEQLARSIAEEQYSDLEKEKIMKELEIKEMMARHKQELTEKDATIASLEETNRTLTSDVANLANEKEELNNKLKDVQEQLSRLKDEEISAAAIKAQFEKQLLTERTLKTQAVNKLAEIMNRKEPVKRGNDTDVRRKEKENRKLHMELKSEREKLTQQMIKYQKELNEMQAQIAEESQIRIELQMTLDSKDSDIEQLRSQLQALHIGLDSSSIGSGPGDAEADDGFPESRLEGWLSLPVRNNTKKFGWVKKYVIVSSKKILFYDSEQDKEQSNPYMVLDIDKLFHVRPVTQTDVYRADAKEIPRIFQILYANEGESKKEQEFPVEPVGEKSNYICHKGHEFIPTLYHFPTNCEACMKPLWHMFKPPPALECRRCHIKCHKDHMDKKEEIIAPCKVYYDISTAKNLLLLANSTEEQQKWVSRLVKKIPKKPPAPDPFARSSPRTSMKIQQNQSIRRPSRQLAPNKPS

Q: With NC(CNC(=O)c1ccccc1Oc1ccccc1)c1ccc(C(=O)Nc2ccncc2)cc1 (stereo not drawn) as the compound, how does the pIC50 read?
A: 5.30 to 6.30

Q: How did the pIC50 turn out when COc1ccc(CCNC(=O)CC(N)c2ccc(C(=O)Nc3ccncc3)cc2)cc1OC (stereo not drawn) was run?
A: 5.30 to 6.30

Q: How did the pIC50 turn out when N[C@@H](CC(=O)N[C@@H]1CCCc2ccccc21)c1ccc(C(=O)Nc2ccncc2)cc1 was run?
A: 6.30 to 7.30

Q: How did the pIC50 turn out when Cc1cccc(C(=O)NCC(N)c2ccc(C(=O)Nc3ccncc3)cc2)c1 (stereo not drawn) was run?
A: 5.30 to 6.30

Q: CN(CC(N)c1ccc(C(=O)Nc2ccncc2)cc1)C(=O)Cc1cccc(Br)c1 (stereo not drawn) was tested. Which pIC50 did it give?
A: 5.30 to 6.30

Q: With NC(c1ccc(C(=O)Nc2ccncc2)cc1)C1CCCN1C(=O)Cc1ccc(Cl)cc1 (stereo not drawn) as the compound, how does the pIC50 read?
A: 5.30 to 6.30

Q: CCCCC(C)CCC(=O)NCC(N)c1ccc(C(=O)Nc2ccncc2)cc1 (stereo not drawn) was tested. Which pIC50 did it give?
A: 6.30 to 7.30

Q: How did the pIC50 turn out when NC(CC(=O)NCc1ccc(C(F)(F)F)c(F)c1)c1ccc(C(=O)Nc2ccncc2)cc1 (stereo not drawn) was run?
A: 6.30 to 7.30

Q: COc1ccccc1CNC(=O)CC(N)c1ccc(C(=O)Nc2ccncc2)cc1 (stereo not drawn) was tested. Which pIC50 did it give?
A: 6.30 to 7.30

Q: CN(CC(N)c1ccc(C(=O)Nc2ccncc2)cc1)C(=O)Cc1cccc(F)c1 (stereo not drawn) was tested. Which pIC50 did it give?
A: 5.30 to 6.30

Q: How did the pIC50 turn out when NC(c1ccc(C(=O)Nc2ccncc2)cc1)C1CCCN1C(=O)Cc1cccc2ccccc12 (stereo not drawn) was run?
A: 5.30 to 6.30

Q: How did the pIC50 turn out when CN(CC(N)c1ccc(C(=O)Nc2ccncc2)cc1)C(=O)C1CCOc2ccccc21 (stereo not drawn) was run?
A: 5.30 to 6.30

Q: How did the pIC50 turn out when NC(c1ccc(C(=O)Nc2ccncc2)cc1)C1CCCN1C(=O)C1CCOc2ccc(Cl)cc21 (stereo not drawn) was run?
A: 5.30 to 6.30

Q: With CN(CC(N)c1ccc(C(=O)Nc2ccncc2)cc1)C(=O)C(C)(C)c1ccc(F)cc1 (stereo not drawn) as the compound, how does the pIC50 read?
A: 5.30 to 6.30

Q: How did the pIC50 turn out when NC(CNC(=O)C1CCSc2ccccc21)c1ccc(C(=O)Nc2ccncc2)cc1 (stereo not drawn) was run?
A: 6.30 to 7.30

Q: Cc1nc(-c2ccccc2)sc1C(=O)NCC(N)c1ccc(C(=O)Nc2ccncc2)cc1 (stereo not drawn) was tested. Which pIC50 did it give?
A: 5.30 to 6.30

Q: How did the pIC50 turn out when CN(CC(N)c1ccc(C(=O)Nc2ccncc2)cc1)C(=O)Cc1c(F)cccc1Cl (stereo not drawn) was run?
A: 5.30 to 6.30

Q: CCNS(=O)(=O)c1cccc(C(=O)NCC(N)c2ccc(C(=O)Nc3ccncc3)cc2)c1 (stereo not drawn) was tested. Which pIC50 did it give?
A: 5.30 to 6.30

Q: How did the pIC50 turn out when NC(CNC(=O)Cc1ccc(F)c(F)c1)c1ccc(C(=O)Nc2ccncc2)cc1 (stereo not drawn) was run?
A: 6.30 to 7.30

Q: NC(CNC(=O)Nc1ccc(F)cc1)c1ccc(C(=O)Nc2ccncc2)cc1 (stereo not drawn) was tested. Which pIC50 did it give?
A: 6.30 to 7.30

Q: How did the pIC50 turn out when NC(CNC(=O)c1ccc2c(c1)OCO2)c1ccc(C(=O)Nc2ccncc2)cc1 (stereo not drawn) was run?
A: 6.30 to 7.30

Q: How did the pIC50 turn out when NC(CC(=O)NCCc1ccccc1)c1ccc(C(=O)Nc2ccncc2)cc1 (stereo not drawn) was run?
A: 6.30 to 7.30

Q: NC(CNC(=O)c1cccc(Cn2cccn2)c1)c1ccc(C(=O)Nc2ccncc2)cc1 (stereo not drawn) was tested. Which pIC50 did it give?
A: 5.30 to 6.30

Q: How did the pIC50 turn out when COc1cc(Br)ccc1CCNC(=O)CC(N)c1ccc(C(=O)Nc2ccncc2)cc1 (stereo not drawn) was run?
A: 6.30 to 7.30

Q: How did the pIC50 turn out when Cc1ccc(CN2CCC(NC(=O)CC(N)c3ccc(C(=O)Nc4ccncc4)cc3)CC2)s1 (stereo not drawn) was run?
A: 6.30 to 7.30

Q: CN(CC(N)c1ccc(C(=O)Nc2ccncc2)cc1)C(=O)C1(c2ccc(Cl)cc2)CCCC1 (stereo not drawn) was tested. Which pIC50 did it give?
A: 5.30 to 6.30

Q: NC(CNC(=O)c1cc2ccccc2[nH]1)c1ccc(C(=O)Nc2ccncc2)cc1 (stereo not drawn) was tested. Which pIC50 did it give?
A: 5.30 to 6.30

Q: With NC(c1ccc(C(=O)Nc2ccncc2)cc1)C1CCCN1C(=O)Cc1ccc(Cl)cc1Cl (stereo not drawn) as the compound, how does the pIC50 read?
A: 5.30 to 6.30

Q: With NC(CC(=O)NCCc1ccc(Cl)c(Cl)c1)c1ccc(C(=O)Nc2ccncc2)cc1 (stereo not drawn) as the compound, how does the pIC50 read?
A: 6.30 to 7.30

Q: With CC[C@@H](NC(=O)CC(N)c1ccc(C(=O)Nc2ccncc2)cc1)c1ccc(C)cc1 (stereo partly drawn) as the compound, how does the pIC50 read?
A: 6.30 to 7.30

Q: NC(c1ccc(C(=O)Nc2ccncc2)cc1)C1CCCN1C(=O)C1CCc2cc(F)ccc21 (stereo not drawn) was tested. Which pIC50 did it give?
A: 5.30 to 6.30

Q: NC(CNC(=O)c1cc2cc(F)ccc2[nH]1)c1ccc(C(=O)Nc2ccncc2)cc1 (stereo not drawn) was tested. Which pIC50 did it give?
A: 5.30 to 6.30

Q: NC(CNC(=O)c1cccnc1)c1ccc(C(=O)Nc2ccncc2)cc1 (stereo not drawn) was tested. Which pIC50 did it give?
A: 5.30 to 6.30

Q: How did the pIC50 turn out when CN(CCO)C(=O)CC(N)c1ccc(C(=O)Nc2ccncc2)cc1 (stereo not drawn) was run?
A: 6.30 to 7.30

Q: How did the pIC50 turn out when NC(CNC(=O)C1CCCC1)c1ccc(C(=O)Nc2ccncc2)cc1 (stereo not drawn) was run?
A: 5.30 to 6.30

Q: With COc1ccc(C(=O)NCC(N)c2ccc(C(=O)Nc3ccncc3)cc2)cc1 (stereo not drawn) as the compound, how does the pIC50 read?
A: 5.30 to 6.30

Q: NC(c1ccc(C(=O)Nc2ccncc2)cc1)C1CCCN1C(=O)C1(c2ccc(Cl)cc2)CCC1 (stereo not drawn) was tested. Which pIC50 did it give?
A: 5.30 to 6.30

Q: With CC(C)(C)c1ccc(CCNC(=O)CC(N)c2ccc(C(=O)Nc3ccncc3)cc2)cc1 (stereo not drawn) as the compound, how does the pIC50 read?
A: 6.30 to 7.30

Q: How did the pIC50 turn out when NC(CNC(=O)C1CCC1)c1ccc(C(=O)Nc2ccncc2)cc1 (stereo not drawn) was run?
A: 5.30 to 6.30

Q: CC(=NOCC(=O)NCC(N)c1ccc(C(=O)Nc2ccncc2)cc1)c1ccccc1 (stereo not drawn) was tested. Which pIC50 did it give?
A: 6.30 to 7.30

Q: How did the pIC50 turn out when CN(CC(N)c1ccc(C(=O)Nc2ccncc2)cc1)C(=O)Cc1ccccc1 (stereo not drawn) was run?
A: 5.30 to 6.30

Q: With Cc1ccc(CCNC(=O)CC(N)c2ccc(C(=O)Nc3ccncc3)cc2)cc1 (stereo not drawn) as the compound, how does the pIC50 read?
A: 6.30 to 7.30

Q: How did the pIC50 turn out when CC(C)(C(=O)N1CCCC1C(N)c1ccc(C(=O)Nc2ccncc2)cc1)c1ccsc1 (stereo not drawn) was run?
A: 5.30 to 6.30

Q: With NC(CNC(=O)COc1ccc(F)cc1)c1ccc(C(=O)Nc2ccncc2)cc1 (stereo not drawn) as the compound, how does the pIC50 read?
A: 6.30 to 7.30

Q: With CN(CC(N)c1ccc(C(=O)Nc2ccncc2)cc1)C(=O)Cc1cccc(F)c1F (stereo not drawn) as the compound, how does the pIC50 read?
A: 5.30 to 6.30

Q: How did the pIC50 turn out when CN(CC(N)c1ccc(C(=O)Nc2ccncc2)cc1)C(=O)Cc1ccc(O)c([N+](=O)[O-])c1 (stereo not drawn) was run?
A: 6.30 to 7.30

Q: With CC(C)(C(=O)N1CCCC1C(N)c1ccc(C(=O)Nc2ccncc2)cc1)c1ccc(F)c(Cl)c1 (stereo not drawn) as the compound, how does the pIC50 read?
A: 5.30 to 6.30

Q: NC(CC(=O)NCc1ccc(F)cc1)c1ccc(C(=O)Nc2ccncc2)cc1 (stereo not drawn) was tested. Which pIC50 did it give?
A: 6.30 to 7.30

Q: How did the pIC50 turn out when NC(CC(=O)Nc1ccc2[nH]ccc2c1)c1ccc(C(=O)Nc2ccncc2)cc1 (stereo not drawn) was run?
A: 6.30 to 7.30

Q: With NC(CNC(=O)c1csc(Nc2ccc(F)cc2)n1)c1ccc(C(=O)Nc2ccncc2)cc1 (stereo not drawn) as the compound, how does the pIC50 read?
A: 5.30 to 6.30

Q: CCNC(=O)CC(N)c1ccc(C(=O)Nc2ccncc2)cc1 (stereo not drawn) was tested. Which pIC50 did it give?
A: 6.30 to 7.30

Q: How did the pIC50 turn out when NC(CNC(=O)[C@@H]1CCC(=O)N1)c1ccc(C(=O)Nc2ccncc2)cc1 (stereo partly drawn) was run?
A: 5.30 to 6.30

Q: How did the pIC50 turn out when Cc1ncccc1C(=O)NCC(N)c1ccc(C(=O)Nc2ccncc2)cc1 (stereo not drawn) was run?
A: 5.30 to 6.30

Q: How did the pIC50 turn out when CCC(Oc1ccccc1)C(=O)NCC(N)c1ccc(C(=O)Nc2ccncc2)cc1 (stereo not drawn) was run?
A: 6.30 to 7.30

Q: NC(c1ccc(C(=O)Nc2ccncc2)cc1)C1CCCN1C(=O)Cc1ccc(C(F)(F)F)cc1 (stereo not drawn) was tested. Which pIC50 did it give?
A: 5.30 to 6.30

Q: NC(CNC(=O)c1cnnc2ccccc12)c1ccc(C(=O)Nc2ccncc2)cc1 (stereo not drawn) was tested. Which pIC50 did it give?
A: 5.30 to 6.30

Q: CC(C)(C)ON=Cc1ccc(C(=O)NCC(N)c2ccc(C(=O)Nc3ccncc3)cc2)cc1 (stereo not drawn) was tested. Which pIC50 did it give?
A: 5.30 to 6.30

Q: NC(CC(=O)NCCc1ccccc1F)c1ccc(C(=O)Nc2ccncc2)cc1 (stereo not drawn) was tested. Which pIC50 did it give?
A: 6.30 to 7.30

Q: NC(CNC(=O)CC1CCCC1)c1ccc(C(=O)Nc2ccncc2)cc1 (stereo not drawn) was tested. Which pIC50 did it give?
A: 5.30 to 6.30

Q: How did the pIC50 turn out when NC(CNC(=O)c1ccccc1)c1ccc(C(=O)Nc2ccncc2)cc1 (stereo not drawn) was run?
A: 6.30 to 7.30

Q: With NC(CC(=O)NNC(=O)c1ccco1)c1ccc(C(=O)Nc2ccncc2)cc1 (stereo not drawn) as the compound, how does the pIC50 read?
A: 6.30 to 7.30

Q: COCC(C)NC(=O)CC(N)c1ccc(C(=O)Nc2ccncc2)cc1 (stereo not drawn) was tested. Which pIC50 did it give?
A: 6.30 to 7.30

Q: How did the pIC50 turn out when CN(CC(N)c1ccc(C(=O)Nc2ccncc2)cc1)C(=O)C1(c2ccc(F)c(F)c2)CCCC1 (stereo not drawn) was run?
A: 5.30 to 6.30

Q: With N#CCCN(C(=O)CC(N)c1ccc(C(=O)Nc2ccncc2)cc1)C1CC1 (stereo not drawn) as the compound, how does the pIC50 read?
A: 5.30 to 6.30

Q: With N[C@H](CC(=O)NC1COc2ccccc21)c1ccc(C(=O)Nc2ccncc2)cc1 (stereo partly drawn) as the compound, how does the pIC50 read?
A: > 7.30

Q: With NC(CNC(=O)C1(c2ccc(Cl)c(Cl)c2)CC1)c1ccc(C(=O)Nc2ccncc2)cc1 (stereo not drawn) as the compound, how does the pIC50 read?
A: 6.30 to 7.30

Q: How did the pIC50 turn out when CN(CC(N)c1ccc(C(=O)Nc2ccncc2)cc1)C(=O)C1(c2ccc(F)cc2)CC1 (stereo not drawn) was run?
A: 5.30 to 6.30

Q: With COCCNC(=O)CC(N)c1ccc(C(=O)Nc2ccncc2)cc1 (stereo not drawn) as the compound, how does the pIC50 read?
A: 6.30 to 7.30

Q: How did the pIC50 turn out when CCN(CC)c1ccc(C(=O)NCC(N)c2ccc(C(=O)Nc3ccncc3)cc2)cc1 (stereo not drawn) was run?
A: 5.30 to 6.30

Q: CN(CC(N)c1ccc(C(=O)Nc2ccncc2)cc1)C(=O)Cc1ccc2c(c1)OCO2 (stereo not drawn) was tested. Which pIC50 did it give?
A: 5.30 to 6.30

Q: How did the pIC50 turn out when NC(CC(=O)NC(c1ccccc1)c1ccc(Cl)cc1)c1ccc(C(=O)Nc2ccncc2)cc1 (stereo not drawn) was run?
A: 6.30 to 7.30

Q: With COc1cccc(NC(=O)NCC(N)c2ccc(C(=O)Nc3ccncc3)cc2)c1 (stereo not drawn) as the compound, how does the pIC50 read?
A: 6.30 to 7.30

Q: NC(CNC(=O)CC(c1ccccc1)c1ccccc1)c1ccc(C(=O)Nc2ccncc2)cc1 (stereo not drawn) was tested. Which pIC50 did it give?
A: 6.30 to 7.30

Source: the Kinase Knowledgebase extract (Sharma et al. 2016)
